Several values for one entry are separate records, joined by “and”; a condition that tells them apart may be missing. Identical values can stand only once.
How the values were obtained:
P. aeruginosa RP73 = test: Neutrophil bacterial co-culture (BKA) assay, P. aeruginosa RP73; format: cell-based; details: 2 hours
Protocol: (§1) 24 hours prior to use, overnight cultures (ONCs) of all strains (P. aeruginosa: multidrug resistant Cystic Fibrosis isolate RP73 (Di Lorenzo et al (2015), Mol. Immunol., 63, 166-175); MRSA: Community acquired strain USA300 (Diep et al (2006), Lancet, 367, 731-739)) were prepared by inoculating 20 ml tryptic soy broth (3% w/v TSB in deionised water) with 2 stock cryobeads for 24 hours at 37° C., under shaking at 120 rpm (Sciquip mini incu shake). After incubation, ONCs were centrifuged at 2,800 g for 20 minutes at 4° C. The pellet was then resuspended in 10 ml Roswell Park Memorial Institute (RPMI) 1640 medium (commercially available from Sigma-Aldrich, UK). Optical density readings were then taken for all strains and diluted in RPMI 1640 to an OD of 0.015, equivalent of 1×10^7 cfu/ml.
Bacterial cultures were prepared as described above. 100 μl of 1×10^7 cfu/ml bacterial strains were added to either 100 μl RPMI 1640, 100 μl 1×10^7/ml neutrophils or increasing concentrations of Tobramycin (for P. aeruginosa) or Vancomycin (for MRSA) (1, 10, 100 μg/ml). These cultures were then incubated at 37° C., under shaking at 120 rpm for up to 24 hours. At 2, 6 and 24 hours, 20 μl aliquots of each sample were diluted in sterile RPMI at 1/10, 1/100, 1/1000, 1/10000, 1/100000 and 1/1000000 and plated on Tryptic Soy Agar (TSA) and incubated at 37° C. for 24 hours. Post incubation, bacterial colonies were manually counted and the total cfu content quantified.
(§2) To validate an in vitro model of neutrophil bacterial killing activity (BKA) assay, increasing concentrations of neutrophils (1×10^5, 5×10^5 and 1×10^6 neutrophils per sample) were incubated with 1×10^6 cfu/ml of the P. aeruginosa strain RP73 under suspension. These neutrophil/bacterial cultures were then incubated for 2 hours at 37° C. under 120 rpm of shaking. […] Post incubation, bacterial colonies were manually counted and the total cfu content quantified.

MRSA USA300 = test: Neutrophil bacterial co-culture (BKA) assay, MRSA USA300; format: cell-based, Staphylococcus aureus; details: 2 hours
Protocol: The “MRSA assay” is carried out as follows: • a. admixing 100 μl of a 1×10^7 CFU/ml solution of MRSA strain USA300 in RPMI 1640 with 100 μl of a solution containing 1×10^7 granulocytes/ml; • b. incubating the admixture at 37° C. under shaking at 120 rpm; • c. taking a sample at 2 hours (diluting in sterile RPMI as needed) and plating on Tryptic Soy Agar; • d. incubating the plated sample at 37° C. for 24 hours; • e. counting the bacterial colonies; and • f. quantifying the total CFU content; and • g. calculating the % of MRSA cells killed based on the CFU content in steps a. and f using the formula ((CFU contentno effector−CFU contenteffector)/CFU contentno effector)×100.
as §1
Bacterial cultures were prepared as described above. […] Post incubation, bacterial colonies were manually counted and the total cfu content quantified.
as §2, with “suspension.” for “suspension. These neutrophil/bacterial cultures were then incubated for 2 hours at 37° C. under 120 rpm of shaking.”

Compound | Bacterial Killing (%) (P. aeruginosa RP73; antibiotic 1 μg/ml) | Bacterial Killing (%) (P. aeruginosa RP73; antibiotic 10 μg/ml) | Bacterial Killing (%) (P. aeruginosa RP73; antibiotic 100 μg/ml) | Bacterial Killing (%) (MRSA USA300; antibiotic 10 μg/ml) | Bacterial Killing (%) (MRSA USA300; antibiotic 1 μg/ml) | Bacterial Killing (%) (MRSA USA300; antibiotic 100 μg/ml)
NC[C@H]1O[C@H](O[C@H]2[C@H](O)[C@@H](O[C@H]3O[C@H](CO)[C@@H](O)[C@H](N)[C@H]3O)[C@H](N)C[C@@H]2N)[C@H](N)C[C@@H]1O [Tobramycin] | 6.60±2.22% and 6.60% | 77.78±13.40% and 77.78% | 95.37±2.87 | 25.05±6.13 | – | –
CN[C@H](CC(C)C)C(=O)N[C@H]1C(=O)N[C@@H](CC(N)=O)C(=O)N[C@H]2C(=O)N[C@H]3C(=O)N[C@H](C(=O)N[C@H](C(=O)O)c4cc(O)cc(O)c4-c4cc3ccc4O)[C@H](O)c3ccc(c(Cl)c3)Oc3cc2cc(c3O[C@@H]2O[C@H](CO)[C@@H](O)[C@H](O)[C@H]2O[C@H]2C[C@](C)(N)[C@H](O)[C@H](C)O2)Oc2ccc(cc2Cl)[C@H]1O [Vancomycin] | – | – | – | – | 5.73±3.70% and 5.73% | 92.58±2.01

Source: patent US20240285681A1, “CELLS FOR TREATING INFECTIONS” (LIfT BioSciences Ltd, priority 2019, published 2024)
